Measurements published in patent US9540323B2 (BRISTOL-MYERS SQUIBB COMPANY, priority 2012, dated 2017).

Tests used:
[1] = biological target: cloned human P2Y1 receptors (Homo sapiens (Human), UniProt P47900); test: Binding Assay B - Scintillation Proximity Assay (SPA) for P2Y1 binding, [33P] 2MeS-ADP; details: SPA, 0.3 nM [33P] 2MeS-ADP, Cheng-Prusoff; read-out: P2Y1 Ki (nM) using binding assay B
Protocol: Binding Assay B—Scintillation Proximity Assay (SPA) for P2Y1 Binding
A SPA membrane binding assay was used to identify inhibitors of [^33P] […] Reactions were allowed to proceed to completion at room temperature for 1 hour followed by centrifugation of the plate for 5 min. About 40 μL of the aqueous solution was aspirated. Plates were sealed and the [^33P]

[2] = test system: human platelet rich plasma (PRP); test: ADP induced platelet aggregation assay; details: Homo sapiens, Platelet, 5 min, read-out: PA IC50 (μM) @ 10 μM ADP, human PRP, 10 μM ADP, AUC at 5 minute

Sequence of cloned human P2Y1 receptors (P47900 whole entry): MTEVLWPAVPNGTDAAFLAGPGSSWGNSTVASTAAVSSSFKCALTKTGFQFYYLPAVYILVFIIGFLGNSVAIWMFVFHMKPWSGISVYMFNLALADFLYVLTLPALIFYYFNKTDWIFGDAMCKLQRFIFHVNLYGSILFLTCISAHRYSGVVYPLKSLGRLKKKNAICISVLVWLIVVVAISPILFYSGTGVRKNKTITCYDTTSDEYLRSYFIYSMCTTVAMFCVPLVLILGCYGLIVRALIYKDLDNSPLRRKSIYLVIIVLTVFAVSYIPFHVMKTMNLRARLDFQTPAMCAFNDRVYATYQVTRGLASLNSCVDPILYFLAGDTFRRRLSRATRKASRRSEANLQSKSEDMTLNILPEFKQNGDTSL

CC1(C)CN(c2ccccc2NC(=O)Nc2ccc(OC(F)(F)F)cc2)c2c(O)c(F)cc(-c3nc4ccc(Cl)cc4s3)c21 [Example 130, 1-(2-(4-(6-Chlorobenzo[d]thiazol-2-yl)-6-fluoro-7-hydroxy-3,3-dimethylindolin-1-yl)phenyl)-3-(4-(trifluoromethoxy)phenyl)urea]
Ki [1]: 93.5 nM
IC50 [2]: 1.8 µM

CCc1ccc(NC(=O)Nc2ccccc2N2CC(CC)(CC)c3c(F)ccc(O)c32)cc1 [Example 27, 1-(2-(3,3-Diethyl-4-fluoro-7-hydroxyindolin-1-yl)phenyl)-3-(4-ethylphenyl)urea]
Ki [1]: 3.1 nM
IC50 [2]: 1.02 µM

CC1(C)CN(c2c(F)cccc2NC(=O)Nc2ccc(F)cc2F)c2c(O)ccc(C(F)(F)F)c21 [Example 62, 1-(2,4-Difluorophenyl)-3-(3-fluoro-2-(7-hydroxy-3,3-dimethyl-4-(trifluoromethyl)indolin-1-yl)phenyl)urea]
Ki [1]: 14.6 nM
IC50 [2]: 0.75 µM

CC(C)(C)c1ccc(NC(=O)Nc2ccccc2N2CC(C)(C)c3c(C(F)(F)F)ccc(O)c32)cc1 [Example 13, 1-(4-tert-Butylphenyl)-3-(2-(7-hydroxy-3,3-dimethyl-4-(trifluoromethyl)indolin-1-yl)phenyl)urea]
Ki [1]: 8.2 nM
IC50 [2]: 0.13 µM

CC1(C)CN(c2ccccc2NC(=O)Nc2ccc(OC(F)(F)F)cc2)c2c(O)ccc(-c3nc4cc(C(F)(F)F)ccc4s3)c21 [Example 87]
Ki [1]: 42.9 nM
IC50 [2]: 0.27 µM

CNc1ncnc2oc(-c3ccc(O)c4c3C(C)(C)CN4c3ccccc3NC(=O)Nc3ccc(OC(F)(F)F)cc3)nc12 [Example 107, 1-(2-(7-Hydroxy-3,3-dimethyl-4-(7-(methylamino)oxazolo[5,4-d]pyrimidin-2-yl)indolin-1-yl)phenyl)-3-(4-(trifluoromethoxy)phenyl)urea]
Ki [1]: 24 nM
IC50 [2]: 3.85 µM

Cc1c(-c2c(F)cc(O)c3c2C(C)(C)CN3c2ccccc2NC(=O)Nc2ccc(OC(F)(F)F)cc2)cnn1-c1ccccc1 [Example 186, 1-(2-(5-Fluoro-7-hydroxy-3,3-dimethyl-4-(5-methyl-1-phenyl-1H-pyrazol-4-yl)indolin-1-yl)phenyl)-3-(4-(trifluoromethoxy)phenyl)urea]
Ki [1]: 17.6 nM
IC50 [2]: 0.67 µM

CC1(C)CN(c2ccccc2NC(=O)Nc2ccc(OC(F)(F)F)cc2)c2c(O)cc(F)c(-c3ccc(F)cn3)c21 [Example 159, 1-(2-(5-Fluoro-4-(5-fluoropyridin-2-yl)-7-hydroxy-3,3-dimethylindolin-1-yl)phenyl)-3-(4-(trifluoromethoxy)phenyl)urea]
Ki [1]: 7.4 nM
IC50 [2]: 0.3 µM

CC1(C)CN(c2ccccc2NC(=O)Nc2nc3ccc(F)cc3s2)c2c(O)cc(F)c(-c3ccc(C(F)(F)F)cn3)c21 [Example 168, 1-(2-(5-Fluoro-7-hydroxy-3,3-dimethyl-4-(5-(trifluoromethyl)pyridin-2-yl)indolin-1-yl)phenyl)-3-(6-fluorobenzo[d]thiazol-2-yl)urea]
Ki [1]: 29.4 nM
IC50 [2]: 0.45 µM

Cc1cc(-c2c(F)cc(O)c3c2C(C)(C)CN3c2ccccc2NC(=O)Nc2ccc(OC(F)(F)F)cc2)cnc1F [Example 192, 1-(2-(5-Fluoro-4-(6-fluoro-5-methylpyridin-3-yl)-7-hydroxy-3,3-dimethylindolin-1-yl)phenyl)-3-(4-(trifluoromethoxy)phenyl)urea]
Ki [1]: 8.8 nM
IC50 [2]: 0.26 µM

CC1(C)CN(c2ccccc2NC(=O)Nc2ccc(OC(F)(F)F)cc2)c2c(O)cc(F)c(-c3ccc(Cl)cn3)c21 [Example 162, 1-(2-(4-(5-Chloropyridin-2-yl)-5-fluoro-7-hydroxy-3,3-dimethylindolin-1-yl)phenyl)-3-(4-(trifluoromethoxy)phenyl)urea]
Ki [1]: 6.4 nM
IC50 [2]: 0.25 µM

CC1(C)CN(c2ccccc2NC(=O)Nc2ccc(OC(F)(F)F)cc2)c2c(O)ccc(C#N)c21 [Example 47, 1-(2-(4-Cyano-7-hydroxy-3,3-dimethylindolin-1-yl)phenyl)-3-(4-(trifluoromethoxy)phenyl)urea]
Ki [1]: 18.6 nM
IC50 [2]: 3.35 µM

CC1(C)CN(c2ccccc2NC(=O)Nc2ccc(OC(F)(F)F)cc2)c2c(O)ccc(-c3ccncc3)c21 [Example 113, 1-(2-(7-Hydroxy-3,3-dimethyl-4-(pyridin-4-yl)indolin-1-yl)phenyl)-3-(4-(trifluoromethoxy)phenyl)urea]
Ki [1]: 5.9 nM
IC50 [2]: 0.35 µM

CC1(C)CN(c2ccccc2NC(=O)Nc2ccc(OC(F)(F)F)cc2)c2c(O)ccc(-c3nc4cc(F)c(F)cc4o3)c21 [Example 99, 1-(2-(4-(5,6-Difluorobenzo[d]oxazol-2-yl)-7-hydroxy-3,3-dimethylindolin-1-yl)phenyl)-3-(4-(trifluoromethoxy)phenyl)urea]
Ki [1]: 28.1 nM
IC50 [2]: 0.89 µM

CC1(CC(F)(F)F)CN(c2ccccc2NC(=O)Nc2ccc(OC(F)(F)F)cc2)c2c(O)ccc(Cl)c21 (stereo not drawn) [Example 78, 1-(2-(4-Chloro-7-hydroxy-3-methyl-3-(2,2,2-trifluoroethyl)indolin-1-yl)phenyl)-3-(4-(trifluoromethoxy)phenyl)urea]
Ki [1]: 7.7 nM
IC50 [2]: 2.92 µM

CC1(C)CN(c2ccccc2NC(=O)Nc2nc3ccc(Cl)nc3s2)c2c(O)cc(F)c(-c3ccc(Cl)cc3)c21 [Example 226, 1-(2-(4-(4-Chlorophenyl)-5-fluoro-7-hydroxy-3,3-dimethylindolin-1-yl)phenyl)-3-(5-chlorothiazolo[5,4-b]pyridin-2-yl)urea]
Ki [1]: 26.6 nM
IC50 [2]: 0.46 µM

Cc1ccnc2oc(-c3ccc(O)c4c3C(C)(C)CN4c3ccccc3NC(=O)Nc3ccc(OC(F)(F)F)cc3)nc12 [Example 103, 1-(2-(7-Hydroxy-3,3-dimethyl-4-(7-methyloxazolo[5,4-b]pyridin-2-yl)indolin-1-yl)phenyl)-3-(4-(trifluoromethoxy)phenyl)urea]
Ki [1]: 11.1 nM
IC50 [2]: 1.03 µM

Cc1nc(NC(=O)Nc2ccccc2N2CC(C)(C)c3c(-c4ccc(F)cc4)ccc(O)c32)cs1 [Example 201, 1-(2-(4-(4-Fluorophenyl)-7-hydroxy-3,3-dimethylindolin-1-yl)phenyl)-3-(2-methylthiazol-4-yl)urea]
Ki [1]: 5.8 nM
IC50 [2]: 0.43 µM

CCC1(CC)CN(c2ccccc2NC(=O)Nc2nc3ccc(C)cc3s2)c2c(O)cccc21 [Example 10, 1-(2-(3,3-Diethyl-7-hydroxyindolin-1-yl)phenyl)-3-(6-methylbenzo[d]thiazol-2-yl)urea]
Ki [1]: 7.6 nM
IC50 [2]: 0.54 µM

CC1(C)CN(c2ccccc2NC(=O)Nc2csc(Cl)n2)c2c(O)cc(F)c(-c3cc(C(F)(F)F)no3)c21 [Example 269, 1-(2-Chlorothiazol-4-yl)-3-(2-(5-fluoro-7-hydroxy-3,3-dimethyl 4-(3-(trifluoromethyl)isoxazol-5-yl)indolin-1-yl)phenyl)urea]
Ki [1]: 1.2 nM
IC50 [2]: 0.39 µM

CC1(C)CN(c2ccccc2NC(=O)Nc2nc3ccc(F)cc3s2)c2c(O)cc(F)c(-c3noc(C(F)(F)F)n3)c21 [Example 277, 1-(2-(5-Fluoro-7-hydroxy-3,3-dimethyl-4-(5-(trifluoromethyl)-1,2,4-oxadiazol-3-yl)indolin-1-yl)phenyl)-3-(6-fluorobenzo[d]thiazol-2-yl)urea]
Ki [1]: 54.9 nM
IC50 [2]: 0.26 µM
